In one experiment the target is KRAS G12C (Homo sapiens (Human), UniProt P01116, C118A/G12C). The experiment can be described thus: 2 h coupled exchange assay. The class given is biochemical. Particulars: Avg 2 h Coupled exchange IC50, 2 h compound pre-incubation. On the procedure:
The term “2 h coupled exchange assay” or “20 h coupled exchange assay” as used herein refers to the assay described in the Section entitled “BIOLOGICAL EVALUATION.”

In experiment [1] the test system is A549 (human lung carcinoma) cells. The experiment can be described thus: Cell Viability Assay (CellTiter-Glo), A549. The class given is cell-based. An outline of the steps: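 Cells grown in RPMI 1640 with 10% FBS were seeded at 1.67E+04 cells/mL and left overnight at 37° C., 5% CO2. They were then exposed to serially diluted compound for 72 h, after which CellTiter-Glo luminescence was read, normalized to DMSO, and fitted to a 4-parameter logistic model for IC50.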
A general note: Cellular ATP, detected with luciferase, serves as a proxy for viable cell number.

Experiment [2] concerns MIA PaCa-2 (human pancreatic carcinoma) cells. The experiment can be described thus: Cell Viability Assay (CellTiter-Glo), MIA PaCa-2. The class given is cell-based. On the procedure:
Serially-diluted compound or DMSO was added to the cells, and plates were incubated at 37° C., 5% CO2 for 72 h. Cell viability was measured using a CellTiter-Glo® Luminescent Cell Viability Assay kit (Promega) according to the manufacturer's protocol. The luminescence signal of treated samples was normalized to DMSO control, and data were analyzed using a 4-parameter logistic model to calculate IC50 values.

The mark [3] stands for this setting: SOS-mediated nucleotide exchange.

SMILES strings stand for the structures.

Chain of KRAS G12C (P01116 other isoform, or with tags, fused parts or gaps G12C/C118A): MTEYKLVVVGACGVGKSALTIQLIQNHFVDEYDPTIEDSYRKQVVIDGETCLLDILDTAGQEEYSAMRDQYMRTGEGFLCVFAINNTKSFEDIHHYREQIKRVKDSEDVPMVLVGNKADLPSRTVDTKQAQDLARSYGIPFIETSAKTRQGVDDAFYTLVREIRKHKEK

Broadly, the IC50 is the midpoint of a concentration-inhibition curve. Consider `C=CC(=O)N1CC2(CCN(c3nc4c(c(-c5ccc(F)cc5F)c3C#N)CCN(c3scnc3C)C4)[C@H]2C)C1` [Example 21-16, 4-(2,4-difluorophenyl)-2-((5S)-5-methyl-2-(2-propenoyl)-2,6-diazaspiro[3.4]octan-6-yl)-7-(4-methyl-1,3-thiazol-5-yl)-5,6,7,8-tetrahydro-1,7-naphthyridine-3-carbonitrile], for which the IC50 against KRAS G12C turned out to be 0.108 µM; in experiment [1] (Homo sapiens, A549, 72 h), 5.11 µM; in experiment [2] (Homo sapiens, MIA PaCa-2, 72 h) it was 0.931 µM.
`C=CC(=O)N1CC2(CCN(c3nc4c(c(-c5c(C)c(Cl)cc6[nH]ncc56)c3Cl)COC(C)(C)C4)C2)C1` (single isomer, unassigned) [Example 2-109, (P)-1-(6-(3-chloro-4-(6-chloro-5-methyl-1H-indazol-4-yl)-7,7-dimethyl-7,8-dihydro-5H-pyrano[4,3-b]pyridin-2-yl)-2,6-diazaspiro[3.4]octan-2-yl)-2-propen-1-one]: the half-inhibitory concentration (IC50) against KRAS G12C (setting [3]) is 0.023 µM; in experiment [1] (Homo sapiens, A549, 72 h), above 5 µM; in experiment [2] (Homo sapiens, MIA PaCa-2, 72 h) it was 0.003 µM.
`C=CC(=O)N1CC2(CCN(c3nc4cc(-c5scnc5C)ccc4c(-c4ccccc4OC)c3C#N)C2)C1` [Example 20-17, 4-(2-methoxyphenyl)-7-(4-methyl-1,3-thiazol-5-yl)-2-(2-(2-propenoyl)-2,6-diazaspiro[3.4]octan-6-yl)-3-quinolinecarbonitrile]: the IC50 against KRAS G12C stood at 0.431 µM; in experiment [1] (Homo sapiens, A549, 72 h), 7.58 µM; in experiment [2] (Homo sapiens, MIA PaCa-2, 72 h), 1.82 µM.
As for `C=CC(=O)N1CC2(CCN(c3cc4c(c(-c5c(C)ccc6cnn(C)c56)c3C#N)OCCC4)C2)C1` [Example 2-101, 8-(1,6-dimethyl-1H-indazol-7-yl)-6-(2-(2-propenoyl)-2,6-diazaspiro[3.4]octan-6-yl)-3,4-dihydro-2H-chromene-7-carbonitrile], the half-maximal inhibitory concentration (IC50) was 0.028 µM at KRAS G12C (setting [3]); 13.4 µM in experiment [1] (Homo sapiens, A549, 72 h); 0.037 µM in experiment [2] (Homo sapiens, MIA PaCa-2, 72 h).
`C=CC(=O)N1CC2(CCN(c3nc4cc(-c5scnc5C)ccc4c(-c4ccccc4Cl)c3C#N)C2)C1` (single isomer, unassigned) [Example 20-4, (P)-4-(2-chlorophenyl)-7-(4-methyl-1,3-thiazol-5-yl)-2-(2-(2-propenoyl)-2,6-diazaspiro[3.4]octan-6-yl)-3-quinolinecarbonitrile]: the IC50 on KRAS G12C is 0.069 µM; in experiment [1] (72 h), above 5 µM; in experiment [2] (72 h) it was 1.01 µM.
Consider `C=CC(=O)N1CC2(CCN(c3nc4c(c(-c5c(C)ccc6[nH]ncc56)c3C#N)CC3CC43)C2)C1` (stereo not drawn) [Example 13-81], for which the IC50 against KRAS G12C (setting [3]) is 0.098 µM; in experiment [1] (Homo sapiens, A549, 72 h) it was above 5 µM; in experiment [2] (Homo sapiens, MIA PaCa-2, 72 h), 0.319 µM.
Consider `C=CC(=O)N1CC2(CCN(c3nc4c(c(-c5cccc6cc(O)ccc56)c3C)CCN(C)C4)C2)C1` [Example 18-6, 1-(6-(4-(6-hydroxy-1-naphthalenyl)-3,7-dimethyl-5,6,7,8-tetrahydro-1,7-naphthyridin-2-yl)-2,6-diazaspiro[3.4]octan-2-yl)-2-propen-1-one], for which the IC50 is 0.08 µM against KRAS G12C; above 5 µM in experiment [1] (Homo sapiens, A549, 72 h); 0.07 µM in experiment [2] (Homo sapiens, MIA PaCa-2, 72 h).
Turning to `C=CC(=O)N1CC2(CCN(c3nc4c(c(-c5cccc6cc(O)ccc56)c3C)CCN(C3COC3)C4)C2)C1` [Example 18-7, 1-(6-(4-(6-hydroxy-1-naphthalenyl)-3-methyl-7-(3-oxetanyl)-5,6,7,8-tetrahydro-1,7-naphthyridin-2-yl)-2,6-diazaspiro[3.4]octan-2-yl)-2-propen-1-one], the IC50 is 0.071 µM against KRAS G12C; above 5 µM in experiment [1] (Homo sapiens, A549, 72 h); 0.064 µM in experiment [2] (Homo sapiens, MIA PaCa-2, 72 h).
As for `C=CC(=O)N1CC2(CCN(c3nc4c(c(-c5cc(O)cc6ccccc56)c3F)COC(C)(C)C4)C2)C1` (single isomer, unassigned) [Example 14-70, (P)-1-(6-(3-fluoro-4-(3-hydroxy-1-naphthalenyl)-7,7-dimethyl-7,8-dihydro-5H-pyrano[4,3-b]pyridin-2-yl)-2,6-diazaspiro[3.4]octan-2-yl)-2-propen-1-one], the IC50 is 0.068 µM against KRAS G12C; above 5 µM in experiment [1] (Homo sapiens, A549, 72 h); 0.082 µM in experiment [2] (Homo sapiens, MIA PaCa-2, 72 h).
For `C=CC(=O)N1CC2(CCN(c3nc4c(c(-c5c(C)ccc6cnn(C)c56)c3C#N)CCC(C)(C)C4)C2)C1` [Example 13-143, 4-(1,6-dimethyl-1H-indazol-7-yl)-7,7-dimethyl-2-(2-(2-propenoyl)-2,6-diazaspiro[3.4]octan-6-yl)-5,6,7,8-tetrahydro-3-quinolinecarbonitrile], the IC50 on KRAS G12C (setting [3]) is 0.033 µM; in experiment [1] (Homo sapiens, A549, 72 h), above 5 µM; in experiment [2] (Homo sapiens, MIA PaCa-2, 72 h), 0.602 µM.
With `C=CC(=O)N1CC2(CCN(c3nc4cc(-c5scnc5C)cnc4c(-c4ccccc4F)c3C#N)C2)C1` [Example 20-15, 4-(2-fluorophenyl)-7-(4-methyl-1,3-thiazol-5-yl)-2-(2-(2-propenoyl)-2,6-diazaspiro[3.4]octan-6-yl)-1,5-naphthyridine-3-carbonitrile], the IC50 at KRAS G12C was 0.116 µM; in experiment [1] (Homo sapiens, A549, 72 h) it was above 5 µM; in experiment [2] (Homo sapiens, MIA PaCa-2, 72 h) it was 0.649 µM.
On to `C=CC(=O)N1CC2(C1)CN(c1nc3c(F)cccc3c(-c3c(C)ccc4[nH]ncc34)c1C#N)CC2F` (stereo not drawn) [Example 1-13, 8-fluoro-2-((8)-8-fluoro-2-(2-propenoyl)-2,6-diazaspiro[3.4]octan-6-yl)-4-(5-methyl-1H-indazol-4-yl)-3-quinolinecarbonitrile], for which the IC50 at KRAS G12C (setting [3]) worked out at 0.601 µM; in experiment [1] (Homo sapiens, A549, 72 h) it was 3.12 µM; in experiment [2] (Homo sapiens, MIA PaCa-2, 72 h) it was 1.88 µM.
Consider `C=CC(=O)N1CC2(CCN(c3nc4cc(-c5cncn5C)cnc4c(-c4ccccc4F)c3C#N)C2)C1` [Example 19-7, 4-(2-fluorophenyl)-7-(1-methyl-1H-imidazol-5-yl)-2-(2-(2-propenoyl)-2,6-diazaspiro[3.4]octan-6-yl)-1,5-naphthyridine-3-carbonitrile], for which the IC50 on KRAS G12C amounted to 0.789 µM; in experiment [1] (Homo sapiens, A549, 72 h) it was 14.1 µM; in experiment [2] (Homo sapiens, MIA PaCa-2, 72 h), 0.495 µM.
On to `C=CC(=O)N1CC2(CCN(c3nc4c(c(-c5cc(O)cc6ccccc56)n3)CCC(C)(C)C4)C2)C1` [Example 1-31, 1-(6-(4-(3-hydroxy-1-naphthalenyl)-7,7-dimethyl-5,6,7,8-tetrahydro-2-quinazolinyl)-2,6-diazaspiro[3.4]octan-2-yl)-2-propen-1-one], for which the IC50 at KRAS G12C (setting [3]) is 0.075 µM; in experiment [1] (Homo sapiens, A549, 72 h), above 5 µM; in experiment [2] (Homo sapiens, MIA PaCa-2, 72 h) it was above 5 µM.
On to `C=CC(=O)N1CC2(CCN(c3nc4c(c(-c5c(C)ccc6cnn(C)c56)c3C#N)[C@@H]3CC[C@H]4C3)C2)C1` (single isomer, unassigned) [Example 14-17], for which the half-maximal inhibitory concentration (IC50) at KRAS G12C (setting [3]) was 0.022 µM; in experiment [1] (Homo sapiens, A549, 72 h), above 5 µM; in experiment [2] (Homo sapiens, MIA PaCa-2, 72 h), 0.051 µM.
Taken in the same sequence, the figures for `C=CC(=O)N1CC2(CCN(c3nc4c(c(-c5c(C)ccc6cnn(C)c56)c3C#N)COC(C)(C)C4)C2)C1` [Example 13-49, 4-(1,6-dimethyl-1H-indazol-7-yl)-7,7-dimethyl-2-(2-(2-propenoyl)-2,6-diazaspiro[3.4]octan-6-yl)-7,8-dihydro-5H-pyrano[4,3-b]pyridine-3-carbonitrile] were 0.123 µM, above 5 µM and 0.442 µM.
The matching figures for `C=CC(=O)N1CC2(CCN(c3nc4c(c(-c5ccccc5Cl)c3C#N)COC(C)(C)C4)C2)C1` [Example 13-5, 4-(2-chlorophenyl)-7,7-dimethyl-2-(2-(2-propenoyl)-2,6-diazaspiro[3.4]octan-6-yl)-7,8-dihydro-5H-pyrano[4,3-b]pyridine-3-carbonitrile]: 0.973 µM, above 5 µM and above 5 µM.
The matching figures for `C=CC(=O)N1CC2(CCN(c3nc4c(c(-c5ccccc5Cl)c3C#N)CC[C@H](c3ccnn3C)C4)C2)C1` [Example 13-21, (7S)-4-(2-chlorophenyl)-7-(1-methyl-1H-pyrazol-5-yl)-2-(2-(2-propenoyl)-2,6-diazaspiro[3.4]octan-6-yl)-5,6,7,8-tetrahydro-3-quinolinecarbonitrile]: 0.062 µM, above 5 µM and 0.615 µM.
As for `C=CC(=O)N1CC2(CCN(c3nc4c(c(-c5c(C)ccc6[nH]nc(C)c56)n3)CCCC4)C2)C1` [Example 1-36, 1-(6-(4-(3,5-dimethyl-1H-indazol-4-yl)-5,6,7,8-tetrahydro-2-quinazolinyl)-2,6-diazaspiro[3.4]octan-2-yl)-2-propen-1-one], the 50% inhibitory concentration (IC50) on KRAS G12C (setting [3]) came to 1.66 µM; in experiment [1] (Homo sapiens, A549, 72 h) it was 15.9 µM; in experiment [2] (Homo sapiens, MIA PaCa-2, 72 h) it was 3.38 µM.
On to `C=CC(=O)N1CC2(CCN(c3nc4c(c(-c5c(C)ccc6[nH]ncc56)c3C)CCC(C)(C)C4)C2)C1` [Example 2-28, 1-(6-(3,7,7-trimethyl-4-(5-methyl-1H-indazol-4-yl)-5,6,7,8-tetrahydro-2-quinolinyl)-2,6-diazaspiro[3.4]octan-2-yl)-2-propen-1-one], for which the concentration for half-maximal inhibition (IC50) at KRAS G12C (setting [3]) was 0.067 µM; in experiment [1] (Homo sapiens, A549, 72 h) it was above 5 µM; in experiment [2] (Homo sapiens, MIA PaCa-2, 72 h), 0.187 µM.

For the origin of these results see patent publication US20240059703A1 (AMGEN INC., priority 2021, published 2024).
